This passage reports relative viability results from the supplement of paper PMC10307832.

The subject of one test is EMC-BAC-2. As to the kind of experiment: relative viability (nuclei count vs DMSO), 5 days (fraction); higher = more cells survive. Particulars: first compound 0.2 µM. The essentials: (§1)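 Dosing by pin tool came one day after lung cancer cell lines were seeded in 1536-well plates, using either one drug or a fixed anchor-drug dose plus five library-drug doses (not always all listed) in √10 steps. After 5 days, nuclei were counted on 4× images. Relative viability is treated-well nuclei count divided by vehicle-well nuclei count, and values are medians of duplicate plates.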
In turn, `COCC1(CO)C(=O)C2CCN1CC2` (stereo not drawn) [PRIMA-1MET] + CCNC(=O)c1noc(-c2cc(C(C)C)c(O)cc2O)c1-c1ccc(CN2CCOCC2)cc1 [Luminespib] (partner 0.01 µM) returned a relative viability of 1.37.
On the same count and under the same terms, the result for `COCC1(CO)C(=O)C2CCN1CC2` (stereo not drawn) [PRIMA-1MET] + COc1cccc2cc(-c3nc([C@H]4CC[C@H](C(=O)O)CC4)n4ncnc(N)c34)[nH]c12 [OSI-027] (partner 0.5 µM) reads 0.509; that for `COCC1(CO)C(=O)C2CCN1CC2` (stereo not drawn) [PRIMA-1MET] + N=C(N)NC(=N)NCCc1ccccc1 [Phenformin] (partner 250 µM), 0.642; that for `COCC1(CO)C(=O)C2CCN1CC2` (stereo not drawn) [PRIMA-1MET] + Nc1nc2[nH]cc(CCc3ccc(C(=O)N[C@@H](CCC(=O)O)C(=O)O)cc3)c2c(=O)[nH]1 [Pemetrexed] (partner 0.2 µM), 0.549.
Turning to `COCC1(CO)C(=O)C2CCN1CC2` (stereo not drawn) [PRIMA-1MET] + Cc1nc(Nc2ncc(C(=O)Nc3c(C)cccc3Cl)s2)cc(N2CCN(CCO)CC2)n1 [Dasatinib] (partner 0.075 µM), the relative viability amounted to 0.394.

Staying with this test, now noted: first compound 0.6325 µM.
In the case of `COCC1(CO)C(=O)C2CCN1CC2` (stereo not drawn) [PRIMA-1MET] + CCNC(=O)c1noc(-c2cc(C(C)C)c(O)cc2O)c1-c1ccc(CN2CCOCC2)cc1 [Luminespib] (partner 0.01 µM), the relative viability was 1.12.
`COCC1(CO)C(=O)C2CCN1CC2` (stereo not drawn) [PRIMA-1MET] + COc1cccc2cc(-c3nc([C@H]4CC[C@H](C(=O)O)CC4)n4ncnc(N)c34)[nH]c12 [OSI-027] (partner 0.5 µM): the relative viability was determined as 0.385.
For the compound `COCC1(CO)C(=O)C2CCN1CC2` (stereo not drawn) [PRIMA-1MET] + N=C(N)NC(=N)NCCc1ccccc1 [Phenformin] (partner 250 µM), the relative viability was 0.564.
As to `COCC1(CO)C(=O)C2CCN1CC2` (stereo not drawn) [PRIMA-1MET] + Nc1nc2[nH]cc(CCc3ccc(C(=O)N[C@@H](CCC(=O)O)C(=O)O)cc3)c2c(=O)[nH]1 [Pemetrexed] (partner 0.2 µM), the relative viability came to 0.44.
Regarding `COCC1(CO)C(=O)C2CCN1CC2` (stereo not drawn) [PRIMA-1MET] + Cc1nc(Nc2ncc(C(=O)Nc3c(C)cccc3Cl)s2)cc(N2CCN(CCO)CC2)n1 [Dasatinib] (partner 0.075 µM), the relative viability stood at 0.298.

Staying with this test, now noted: first compound 2 µM.
`COCC1(CO)C(=O)C2CCN1CC2` (stereo not drawn) [PRIMA-1MET] + Nc1nc2[nH]cc(CCc3ccc(C(=O)N[C@@H](CCC(=O)O)C(=O)O)cc3)c2c(=O)[nH]1 [Pemetrexed] (partner 0.2 µM) gave a relative viability of 0.422.

Staying with this test, now noted: first compound 6.325 µM.
`COCC1(CO)C(=O)C2CCN1CC2` (stereo not drawn) [PRIMA-1MET] + CCNC(=O)c1noc(-c2cc(C(C)C)c(O)cc2O)c1-c1ccc(CN2CCOCC2)cc1 [Luminespib] (partner 0.01 µM): the relative viability turned out to be 1.23.
For `COCC1(CO)C(=O)C2CCN1CC2` (stereo not drawn) [PRIMA-1MET] + COc1cccc2cc(-c3nc([C@H]4CC[C@H](C(=O)O)CC4)n4ncnc(N)c34)[nH]c12 [OSI-027] (partner 0.5 µM), the relative viability turned out to be 0.366.
Same read-out and setting: the result for `COCC1(CO)C(=O)C2CCN1CC2` (stereo not drawn) [PRIMA-1MET] + N=C(N)NC(=N)NCCc1ccccc1 [Phenformin] (partner 250 µM) reads 0.609; that for `COCC1(CO)C(=O)C2CCN1CC2` (stereo not drawn) [PRIMA-1MET] + Nc1nc2[nH]cc(CCc3ccc(C(=O)N[C@@H](CCC(=O)O)C(=O)O)cc3)c2c(=O)[nH]1 [Pemetrexed] (partner 0.2 µM), 0.459.
On the same count and under the same terms, the result for `COCC1(CO)C(=O)C2CCN1CC2` (stereo not drawn) [PRIMA-1MET] + Cc1nc(Nc2ncc(C(=O)Nc3c(C)cccc3Cl)s2)cc(N2CCN(CCO)CC2)n1 [Dasatinib] (partner 0.075 µM) reads 0.378.

Staying with this test, now noted: first compound 20 µM.
On to `COCC1(CO)C(=O)C2CCN1CC2` (stereo not drawn) [PRIMA-1MET] + CCNC(=O)c1noc(-c2cc(C(C)C)c(O)cc2O)c1-c1ccc(CN2CCOCC2)cc1 [Luminespib] (partner 0.01 µM), for which the relative viability turned out to be 0.957.
Consider `COCC1(CO)C(=O)C2CCN1CC2` (stereo not drawn) [PRIMA-1MET] + COc1cccc2cc(-c3nc([C@H]4CC[C@H](C(=O)O)CC4)n4ncnc(N)c34)[nH]c12 [OSI-027] (partner 0.5 µM), for which the relative viability is 0.322.
`COCC1(CO)C(=O)C2CCN1CC2` (stereo not drawn) [PRIMA-1MET] + N=C(N)NC(=N)NCCc1ccccc1 [Phenformin] (partner 250 µM): the relative viability came out at 0.352.
The compound `COCC1(CO)C(=O)C2CCN1CC2` (stereo not drawn) [PRIMA-1MET] + Nc1nc2[nH]cc(CCc3ccc(C(=O)N[C@@H](CCC(=O)O)C(=O)O)cc3)c2c(=O)[nH]1 [Pemetrexed] (partner 0.2 µM) came in with a relative viability of 0.473.
`COCC1(CO)C(=O)C2CCN1CC2` (stereo not drawn) [PRIMA-1MET] + Cc1nc(Nc2ncc(C(=O)Nc3c(C)cccc3Cl)s2)cc(N2CCN(CCO)CC2)n1 [Dasatinib] (partner 0.075 µM) registered a relative viability of 0.247.

A further test concerns SW 1573. The description is as above. Particulars: first compound 0.2 µM. In outline: as §1
Take `COCC1(CO)C(=O)C2CCN1CC2` (stereo not drawn) [PRIMA-1MET] + CCNC(=O)c1noc(-c2cc(C(C)C)c(O)cc2O)c1-c1ccc(CN2CCOCC2)cc1 [Luminespib] (partner 0.01 µM): the relative viability worked out at 0.233.
Regarding `COCC1(CO)C(=O)C2CCN1CC2` (stereo not drawn) [PRIMA-1MET] + COc1cccc2cc(-c3nc([C@H]4CC[C@H](C(=O)O)CC4)n4ncnc(N)c34)[nH]c12 [OSI-027] (partner 0.5 µM), the relative viability was found to be 0.622.
Still for that read-out and setting: the result for `COCC1(CO)C(=O)C2CCN1CC2` (stereo not drawn) [PRIMA-1MET] + N=C(N)NC(=N)NCCc1ccccc1 [Phenformin] (partner 250 µM) reads 0.408.
Still for that read-out and setting: the result for `COCC1(CO)C(=O)C2CCN1CC2` (stereo not drawn) [PRIMA-1MET] + Nc1nc2[nH]cc(CCc3ccc(C(=O)N[C@@H](CCC(=O)O)C(=O)O)cc3)c2c(=O)[nH]1 [Pemetrexed] (partner 0.2 µM) reads 0.882; that for `COCC1(CO)C(=O)C2CCN1CC2` (stereo not drawn) [PRIMA-1MET] + Cc1nc(Nc2ncc(C(=O)Nc3c(C)cccc3Cl)s2)cc(N2CCN(CCO)CC2)n1 [Dasatinib] (partner 0.075 µM), 0.452.

The same test, now with this note: first compound 0.6325 µM.
`COCC1(CO)C(=O)C2CCN1CC2` (stereo not drawn) [PRIMA-1MET] + COc1cccc2cc(-c3nc([C@H]4CC[C@H](C(=O)O)CC4)n4ncnc(N)c34)[nH]c12 [OSI-027] (partner 0.5 µM) registered a relative viability of 0.482.
`COCC1(CO)C(=O)C2CCN1CC2` (stereo not drawn) [PRIMA-1MET] + N=C(N)NC(=N)NCCc1ccccc1 [Phenformin] (partner 250 µM) gave a relative viability of 0.291.
`COCC1(CO)C(=O)C2CCN1CC2` (stereo not drawn) [PRIMA-1MET] + Nc1nc2[nH]cc(CCc3ccc(C(=O)N[C@@H](CCC(=O)O)C(=O)O)cc3)c2c(=O)[nH]1 [Pemetrexed] (partner 0.2 µM): the relative viability came to 0.89.
`COCC1(CO)C(=O)C2CCN1CC2` (stereo not drawn) [PRIMA-1MET] + Cc1nc(Nc2ncc(C(=O)Nc3c(C)cccc3Cl)s2)cc(N2CCN(CCO)CC2)n1 [Dasatinib] (partner 0.075 µM) had a relative viability of 0.411.

The test is the same for the next values; noted with them: first compound 2 µM.
As for `COCC1(CO)C(=O)C2CCN1CC2` (stereo not drawn) [PRIMA-1MET] + CCNC(=O)c1noc(-c2cc(C(C)C)c(O)cc2O)c1-c1ccc(CN2CCOCC2)cc1 [Luminespib] (partner 0.01 µM), the relative viability was found to be 0.214.
In the case of `COCC1(CO)C(=O)C2CCN1CC2` (stereo not drawn) [PRIMA-1MET] + COc1cccc2cc(-c3nc([C@H]4CC[C@H](C(=O)O)CC4)n4ncnc(N)c34)[nH]c12 [OSI-027] (partner 0.5 µM), the relative viability worked out at 0.597.
Still for that read-out and setting: the result for `COCC1(CO)C(=O)C2CCN1CC2` (stereo not drawn) [PRIMA-1MET] + N=C(N)NC(=N)NCCc1ccccc1 [Phenformin] (partner 250 µM) reads 0.393.
